Results taken from US6642217B2, “Triterpenes having human antifungal and antiyeast activity” (Naturtek, LLC, priority 2000, dated 2003).

How the values were obtained:
Microsporum gypseum = assay: Agar dilution method, growth on Sabouraud dextrose agar slants; format: cell-based; design: key: +++: Maximum Fungal Growth; ++: Moderate Fungal Growth; +: Minimum Fungal Growth; +/−: Very little Fungal Growth; −: No Fungal Growth; settings: 12th day after inoculation
Description: (§1) Agar dilution method. Sabouraud Dextrose Agar (Difco Laboratories, Michigan) was prepared according to the manufacturer's instructions. Five ml was dispensed in a 100×25 mm tube and autoclaved. To each tube containing 5.0 ml of liquid agar at 45° C., 0.5, 0.25, 0.12, or 0.063 ml of a DMSO solution of the compound was added to give the final indicated concentrations in Table 2. The agar was then solidified in slants. Fungal cultures were inoculated. The slants were incubated at 25-28° C. for 10-12 days, and the growth of the fungus was recorded every second day.

Pityrosporum ovale [1] = assay: as above; format: cell-based; design: key: +++: Maximum Fungal Growth; ++: Moderate Fungal Growth; +: Minimum Fungal Growth; +/−: Very little Fungal Growth; −: No Fungal Growth; settings: 12th day after inoculation
Description: as §1

Trichophyton rubrum [2] = assay: as above; format: cell-based; design: key: +++: Maximum Fungal Growth; ++: Moderate Fungal Growth; +: Minimum Fungal Growth; +/−: Very little Fungal Growth; −: No Fungal Growth; settings: 12th day after inoculation
Description: as §1

Microsporum canis [3] = assay: as above; format: cell-based; design: key: +++: Maximum Fungal Growth; ++: Moderate Fungal Growth; +: Minimum Fungal Growth; +/−: Very little Fungal Growth; −: No Fungal Growth; settings: 12th day after inoculation
Description: as §1

Epidermophyton floccosum [4] = assay: as above; format: cell-based; design: key to Fungal growth: +++: Maximum Fungal Growth; ++: Moderate Fungal Growth; +: Minimum Fungal Growth; +/−: Very little Fungal Growth; −: No Fungal Growth; settings: 12th day after inoculation
Description: as §1

Microsporum audouinii = assay: Summary of anti-fungal assays (direct addition, agar dilution, liquid culture); format: cell-based; settings: stated in words (Tables 1a/1b, text to Table 5)
Description: (§2) This example summarizes the results of various other assays of the anti-fungal activity of betulin derivatives. Table 5 summarizes results using different assay methods—direct addition, agar dilution, and direct addition to liquid culture, as disclosed in the previous three Examples. In some cases, only one type of assay was done with a compound. In other cases, the compound was tested by multiple assays.

Microsporum audouinni [5] = assay: Direct addition method, solid compound in Sabouraud dextrose agar; format: cell-based, Microsporum audouinii; design: key to Fungal growth: +++: Maximum Fungal Growth; ++: Moderate Fungal Growth; +: Minimum Fungal Growth; +/−: Very little Fungal Growth; −: No Fungal Growth; settings: for Fungal growth: 4 mg/mL of agar, 12th day after inoculation
Description: (§3) Direct addition method. Sabouraud dextrose agar was prepared according to the manufacturer's instructions and 5.0 ml was dispensed in each 100×25 mm tube. The tubes were autoclaved. To each tube containing 5.0 ml of liquid agar at 45° C., 20 mg of solid test compound was added, to give a final concentration of 4 mg/ml. The agar was solidified in slants. The fungal cultures were then innoculated. The slants were incubated at 25-28 ° C. for 10-12 days, and the growth of the fungus was recorded every second day. The results in Table 2 indicate growth at the 12th day of inoculation.

Pityrosporum ovale [6] = assay: as above; format: cell-based; design: key: +++: Maximum Fungal Growth; ++: Moderate Fungal Growth; +: Minimum Fungal Growth; +/−: Very little Fungal Growth; −: No Fungal Growth; settings: 4 mg/mL of agar; 12th day after inoculation
Description: as §3

Trichophyton rubrum [7] = assay: as above; format: cell-based; design: key: +++: Maximum Fungal Growth; ++: Moderate Fungal Growth; +: Minimum Fungal Growth; +/−: Very little Fungal Growth; −: No Fungal Growth; settings: 4 mg/mL of agar; 12th day after inoculation
Description: as §3

Microsporum canis [8] = assay: as above; format: cell-based; design: key: +++: Maximum Fungal Growth; ++: Moderate Fungal Growth; +: Minimum Fungal Growth; +/−: Very little Fungal Growth; −: No Fungal Growth; settings: 4 mg/mL of agar; 12th day after inoculation
Description: as §3

Epidermophyton floccosum [9] = assay: as above; format: cell-based; design: key: +++: Maximum Fungal Growth; ++: Moderate Fungal Growth; +: Minimum Fungal Growth; +/−: Very little Fungal Growth; −: No Fungal Growth; settings: 4 mg/mL of agar; 12th day after inoculation
Description: as §3

Trichophyton tonsuran = assay: Agar dilution method, growth on Sabouraud dextrose agar slants; format: cell-based, Trichophyton tonsurans; design: key: +++: Maximum Fungal Growth; ++: Moderate Fungal Growth; +: Minimum Fungal Growth; +/−: Very little Fungal Growth; −: No Fungal Growth; settings: 12th day after inoculation
Description: as §1

Pityrosporum ovale [10] = assay: Direct addition into the Pityrosporum agar; format: cell-based; design: key to Pityrosporum ovale growth: +++: Maximum Growth; ++: Moderate Growth; +: Minimum Growth; +/−: Very Little Growth; −: No Growth; settings: 4 mg/ml in the agar; 18 hours after inoculation
Description: as §3, with “The slants were incubated at 25-28 ° C. for 10-12 days, and the growth of the fungus was recorded every second day. The results in Table 2 indicate growth at the 12th day of inoculation.” left out

Microsporum audouinni [11] = assay: Agar dilution method, growth on Sabouraud dextrose agar slants; format: cell-based, Microsporum audouinii; design: key: +++: Maximum Fungal Growth; ++: Moderate Fungal Growth; +: Minimum Fungal Growth; +/−: Very little Fungal Growth; −: No Fungal Growth; settings: 12th day after inoculation
Description: as §1

[12] = test system: Trichophyton mentagrophyte; assay: as above; format: cell-based, Trichophyton mentagrophytes; design: key to Fungal growth: +++: Maximum Fungal Growth; ++: Moderate Fungal Growth; +: Minimum Fungal Growth; +/−: Very little Fungal Growth; −: No Fungal Growth; settings: 12th day after inoculation
Description: as §1

Epidermophyton floccosum [13] = assay: Summary of anti-fungal assays (direct addition, agar dilution, liquid culture); format: cell-based; settings: stated in words (Tables 1a/1b, text to Table 5)
Description: as §2

SMILES	Fungal growth (Microsporum gypseum; 125 μg/ml)	Fungal growth (Microsporum gypseum; 250 μg/ml)	Fungal growth (Microsporum gypseum; 500 μg/ml)	Fungal growth (Pityrosporum ovale [1]; 125 μg/ml)	Fungal growth (Pityrosporum ovale [1]; 250 μg/ml)	Fungal growth (Pityrosporum ovale [1]; 500 μg/ml)	Fungal growth (Trichophyton rubrum [2]; 125 μg/ml)	Fungal growth (Trichophyton rubrum [2]; 250 μg/ml)	Fungal growth (Trichophyton rubrum [2]; 500 μg/ml)	Fungal growth (Microsporum canis [3]; 125 μg/ml)	Fungal growth (Microsporum canis [3]; 250 μg/ml)	Fungal growth (Microsporum canis [3]; 500 μg/ml)	Fungal growth (Epidermophyton floccosum [4]; 125 μg/ml)	Fungal growth (Epidermophyton floccosum [4]; 250 μg/ml)	Fungal growth (Epidermophyton floccosum [4]; 500 μg/ml)	Active against Microsporum audouinii (Microsporum audouinii)	Fungal growth (Microsporum audouinni [5])	Fungal growth (Pityrosporum ovale [6])	Fungal growth (Trichophyton rubrum [7])	Fungal growth (Microsporum canis [8])	other results
CC1(C)CCC23CC[C@@]4(C)C(CCC5[C@@]6(C)CCC(OC(=O)CCC(=O)O)C(C)(C)C6CC[C@]54C)C2C1OC3 (some centres unmarked) [Allobetulin-3-succinate]	++	+	−	+++	+++	+	++	−	−	++	−	−	++	+	−	Microsporum audouinii	+	−	+	+	Fungal growth (Microsporum gypseum; 62.5 μg/ml): +++; Fungal growth (Pityrosporum ovale [1]; 62.5 μg/ml): +++; Fungal growth (Trichophyton rubrum [2]; 62.5 μg/ml): ++; Fungal growth (Microsporum canis [3]; 62.5 μg/ml): ++; Fungal growth (Epidermophyton floccosum [4]; 62.5 μg/ml): ++; Fungal growth (Epidermophyton floccosum [9]): −; Fungal growth (Trichophyton tonsuran; 62.5 μg/ml): ++; Fungal growth (Trichophyton tonsuran; 125 μg/ml): ++; Fungal growth (Trichophyton tonsuran; 250 μg/ml): +; Fungal growth (Trichophyton tonsuran; 500 μg/ml): −; Pityrosporum ovale growth (Pityrosporum ovale [10]): +; Fungal growth (Microsporum audouinni [11]; 62.5 μg/ml): ++; Fungal growth (Microsporum audouinni [11]; 125 μg/ml): ++; Fungal growth (Microsporum audouinni [11]; 250 μg/ml): −; Fungal growth (Microsporum audouinni [11]; 500 μg/ml): −; Fungal growth ([12]; 62.5 μg/ml): ++; Fungal growth ([12]; 125 μg/ml): +; Fungal growth ([12]; 250 μg/ml): +/−; Fungal growth ([12]; 500 μg/ml): −
C=C(C)C1CCC2(COC(=O)COCC(=O)O)CCC3(C)C(CCC4C5(C)CCC(O)C(C)(C)C5CCC43C)C12 (centres unmarked) [Betulin-28-diglycolate]																					Active against Epidermophyton floccosum (Epidermophyton floccosum [13]): against Epidermophyton floccosum
C=C(C)C1CCC2(COC(=O)CCC(=O)O)CC[C@@]3(C)C(CCC4[C@@]5(C)CCC(O)C(C)(C)C5CC[C@]43C)C12 (some centres unmarked) [Betulin-28-succinate]	++	+	+	+++	+++	+++	+	+	+	+	+	+	++	+	+	Microsporum audouinii	−	−	+	+	Fungal growth (Microsporum gypseum; 1000 μg/ml): −; Fungal growth (Pityrosporum ovale [1]; 1000 μg/ml): ++; Fungal growth (Trichophyton rubrum [2]; 1000 μg/ml): −; Fungal growth (Microsporum canis [3]; 1000 μg/ml): −; Fungal growth (Epidermophyton floccosum [4]; 1000 μg/ml): −; best anti-fungal or anti-yeast activity by the direct addition method (Microsporum audouinni [5]; against Microsporum audouinii): against Microsporum audouinii; Fungal growth (Epidermophyton floccosum [9]): −; Fungal growth (Trichophyton tonsuran; 125 μg/ml): ++; Fungal growth (Trichophyton tonsuran; 250 μg/ml): +; Fungal growth (Trichophyton tonsuran; 500 μg/ml): +; Fungal growth (Trichophyton tonsuran; 1000 μg/ml): −; Pityrosporum ovale growth (Pityrosporum ovale [10]): +; Fungal growth (Microsporum audouinni [11]; 125 μg/ml): +; Fungal growth (Microsporum audouinni [11]; 250 μg/ml): +/−; Fungal growth (Microsporum audouinni [11]; 500 μg/ml): −; Fungal growth (Microsporum audouinni [11]; 1000 μg/ml): −; Fungal growth ([12]; 125 μg/ml): ++; Fungal growth ([12]; 250 μg/ml): +; Fungal growth ([12]; 500 μg/ml): +; Fungal growth ([12]; 1000 μg/ml): −
